15 compounds from ChEMBL document CHEMBL1124332, “2-(Alkylamino)tetralin derivatives: interaction with 5-HT1A serotonin binding sites” (J Med Chem, 1989) can be followed below.

In assay [1] the target is T1, 5-hydroxytryptamine receptor 1A (Rattus norvegicus) (UniProt P19327).
T1 sequence (whole entry): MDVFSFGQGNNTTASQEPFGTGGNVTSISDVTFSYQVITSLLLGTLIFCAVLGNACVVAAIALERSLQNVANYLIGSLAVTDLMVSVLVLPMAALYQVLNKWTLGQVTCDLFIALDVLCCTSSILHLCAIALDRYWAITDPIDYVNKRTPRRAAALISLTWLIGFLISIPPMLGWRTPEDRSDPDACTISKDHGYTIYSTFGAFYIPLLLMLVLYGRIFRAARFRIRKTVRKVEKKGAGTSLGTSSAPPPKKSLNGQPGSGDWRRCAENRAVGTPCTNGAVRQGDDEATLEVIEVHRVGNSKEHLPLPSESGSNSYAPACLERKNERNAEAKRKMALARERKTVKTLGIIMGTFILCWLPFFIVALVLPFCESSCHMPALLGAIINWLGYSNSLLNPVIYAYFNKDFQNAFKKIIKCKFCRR
In words: Binding affinity at [3H]8-OH-DPAT-Labeled 5-hydroxytryptamine 1A receptor sites in rat brain hippocampal membranes expressed as Hill values. In kind it is cell membranes.

For assay [2], the target named is T2, 5-hydroxytryptamine receptor 1A (Rattus norvegicus, UniProt P19327).
T2 sequence (P19327 whole entry): T1 sequence (whole entry)
In words: Binding affinity at [3H]8-OH-DPAT-Labeled 5-hydroxytryptamine 1A receptor sites in rat brain hippocampal membranes. The assay is classed as cell membranes.

In general, Hill coefficient refers to the slope factor of the fitted curve. As a reminder, the Ki is a dissociation constant, usually derived from enzyme kinetics or from competition with a known ligand. Read a high Ki as a looser hold on the target. For `COc1cccc2c1CC(NCCc1ccccc1)CC2` (stereo not drawn), the Hill coefficient in assay [1] was found to be 0.85. This compound gave a Ki in assay [2] of 44 nM.
`CCCNC1CCc2ccccc2C1` (stereo not drawn) registered a Hill coefficient in assay [1] of 0.74. The affinity in assay [2] corresponds to a Ki of 19 nM.
For `COc1cccc2c1CC(N(C)Cc1ccccc1)CC2` (stereo not drawn) the same measures were 0.91 and 78 nM.
As for `c1ccc(CCCNC2CCc3ccccc3C2)cc1` (stereo not drawn), the Hill coefficient in assay [1] came out at 1.06. The compound further gave a Ki in assay [2] of 13 nM.
In the case of `COc1cccc2c1CC(N)CC2` (stereo not drawn), the Hill coefficient in assay [1] was 0.77. The compound also had a Ki in assay [2] of 53 nM.
Compound `CCCN(CCC)C1CCc2cccc(OC)c2C1` (stereo not drawn) gave a Hill coefficient in assay [1] of 0.78.
On the same count and under the same terms, under `CCCN(CCC)C1CCc2cccc(O)c2C1` (stereo not drawn) stands 1.01.
`CCCN(C)C1CCc2cccc(OC)c2C1` (stereo not drawn) gave a Hill coefficient in assay [1] of 0.91. Besides, the inhibition constant (Ki) in assay [2] came out at 2.1 nM.
For `COc1cccc2c1CC(N(C)CCc1ccccc1)CC2` (stereo not drawn) the same measures were 0.9 and 7.9 nM.
For `Oc1cccc2c1CC(NCCCc1ccccc1)CC2` (stereo not drawn) the same measures were 0.87 and 1.9 nM.
In turn, `CCCNC1CCc2cccc(OC)c2C1` (stereo not drawn) displayed a Hill coefficient in assay [1] of 0.8. The affinity in assay [2] corresponds to a Ki of 2.3 nM.
For `c1ccc(CCCNC2CCc3cccc(OCc4ccccc4)c3C2)cc1` (stereo not drawn) the same measures were 0.91 and 10 nM.
Take `COc1cccc2c1CC(NCCCCc1ccccc1)CC2` (stereo not drawn): the Hill coefficient in assay [1] came to 0.92. The same compound registered a Ki in assay [2] of 5.6 nM.
As for `COc1cccc2c1CC(N(C)CCCc1ccccc1)CC2` (stereo not drawn), the Hill coefficient in assay [1] was 0.94. For the same compound, the affinity in assay [2], expressed as Ki, was 2 nM.
Compound `COc1cccc2c1CC(NCCCc1ccccc1)CC2` (stereo not drawn) gave a Hill coefficient in assay [1] of 0.83. Moreover, the affinity in assay [2] corresponds to a Ki of 2.5 nM.
